Reference: paper PMC7377376, “Drug targeting CYP2E1 for the treatment of early-stage alcoholic steatohepatitis” (PLoS ONE, 2020)

Experiments:
[1] = target: T1, human cytochrome P450 2E1 (Homo sapiens, UniProt P05181); assay: Steady-state p-nitrophenol oxidation, CYP2E1 inhibition in SUPERSOMES; type: biochemical
T1 construct: purchased BD Biosciences
Experimental: Initial velocities of the oxidation of p-nitrophenol (p-NP) to p-nitrocatechol by human cytochrome P450 2E1 were determined by measuring the absorption at 535 nm or 546 nm to determine product formation as described before.
Alternatively, 100 mM HEPES pH 7.6 was additionally used for the enzyme kinetic measurements. A final concentration of either 50 nM enzyme in form of SUPERSOMES™ from BD Biosciences or microsomes in case of cell culture experiments was added. Reaction was initiated by adding 500 μM (enzyme kinetic measurements) or 0.1 mM (cell culture experiments) NADPH after preincubation at 37° C and stopped by adding 20% trichloroacetic acid (TCA) after 30 minutes to ensure linearity of product formation. The protein concentration for the microsomal fraction was determined by Bradford assay to calculate the results expressed as units of specific activity defined as the amount of enzyme that consumes 1 μmol/L of NADPH per hour per microgram of protein. Inhibitor stock solutions were prepared in 0.1% DMSO and diluted to a final DMSO concentration of 0.003% in the reaction mixture at most to avoid enzyme inhibition by this solvent. Inhibitory constants (Ki) were calculated by non-linear fitting of initial velocities. Maximum inhibition could not be achieved since final inhibitor concentrations were limited by DMSO.
Supplementary file pone.0235990.s002.tif: S2 Fig CYP2E1 inhibition by data base inhibitors. To ascertain whether an imidazole containing compound is already commercially available and better suited for development as a drug can-didate, we performed a large virtual library screening of the ZINK database. We found 14,738 hits. The 5,261 commercially available compounds could be classified as 4,710 synthetic and 551 natural molecules. After docking and final scoring process, the seven best synthetic and the three best natural candidates were purchased and tested in vitro for their potential to inhibit CYP2E1 activity. Different concentrations of these compounds dissolved in DMSO were added to 110 μM p-Nitrophenol in 100 mM HEPES buffer pH 7.6 and SUPERSOMES™ with 50 nM human CYP 2E1 to calculate relative activity values. […] 20 μM corresponds to a DMSO volume of 0.02% (v/v). (TIF) Click here for additional data file.

[2] = test system: ethanol-fed Wistar rats; assay: Oxidative stress parameters in liver of ethanol-fed rats (Lieber-DeCarli diet); type: in vivo; set-up: GR activity reduction compared to disease group / increase of ethanol effect on GR activity / hydrogen peroxide amount reduced below the reference value: concentration or dose not given beside the values; conditions: rat liver; for reduction of ethanol effect on hydrogen peroxide: I-ol, I-an 0.4/4/40 mg/kg b.w., UDCA 40 mg/kg; for reduction of ethanol effect on hydrogen peroxide / hydrogen peroxide decrease compared to disease group / reduction of ethanol effect on reduced glutathione (GSH): oral; for reduction of ethanol effect on hydrogen peroxide / hydrogen peroxide decrease compared to disease group / reduction of ethanol effect on reduced glutathione (GSH) / SRA decrease compared to disease group: 10 weeks; for increase of ethanol effect on GR activity: as worded in Fig 3 legend; for GSH elevation compared to disease group / SRA decrease compared to disease group: average over 0.4/4/40 mg/kg b.w.; for SRA decrease compared to disease group: daily oral gavage; for reduction of ethanol effect on glutathione reductase (GR) activity: average over doses (UDCA 40 mg/kg); for GPx activity below the reference value in healthy animals: highest concentration (UDCA 40 mg/kg b.w.); for reduction of ethanol effect on glutathione peroxidase (GPx) activity: on average
Excerpt: A total of 68 female Wistar rats (Institute of Pharmacology and Biochemistry Breeding House, Minsk, Belarus) aged 80–90 days and weighting 180–200 g at the beginning of the experiments were used in the study. Each rat group (n = 6–8) was housed in a separate cage and had free access to the liquid diet during the full study period. Prior to the study, the animals were habituated for seven days to the cage conditions and experimental handling. The rats were maintained in a controlled experimental environment (20–25°C, 40–50% humidity, 12 h light per day, room with a 12-h light/dark cycle).
Rats were divided into ten groups characterized by the diet and the test compounds (S1 Table). Group 1 is the first control group in which a normal solid standard diet was fed for 12 weeks. All other groups received the liquid Lieber-DeCarli (LDC) diet (S2 Table), which combines food and drink in a liquid manner. It was prepared by ssniff Spezialdiäten GmbH, Soest. The addition of maltodextrin to this diet should compensate the pure caloric effect of ethanol, whereby 1.77 g maltodextrin replaces 1 g ethanol. The calorie value of both the control and ethanol diets was the same: 35% calories from fat, 11% from carbohydrates, 18% from protein and 36% from ethanol.
In the first two weeks rats of all groups–with the exception of group 1 –were fed with LDC diet plus maltodextrin in an appropriate amount to adapt the animals to the liquid diet. Group 2 is the second control group in which the isocaloric diet was administered for further 10 weeks until the end of the experiment. […] The test compounds I-ol, I-an and UDCA were dissolved in a 0.8% aqueous HPMC gel to obtain the appropriate concentrations: (1) I-ol with 0.4, 4 and 40 mg/kg b. w. (2) I-an with 0.4, 4 and 40 mg/kg b. w. (3) UDCA with 40 mg/kg b. w. Rats of group 2 and 3 received only HPMC as a placebo. The LDC diets were fed ad libitum and their intake per cage was controlled daily. The corresponding bottles were stored in the cages from 08:00 a. m. until 06:00 p. m. and replaced by drinking water bottles overnight until 08:00 a. m. in the next morning. Every day at the same time, the test compounds or only HPMC were administered intragastrically by oral gavage with an administration volume of 2 ml/kg b. w. After ten weeks of treatment, the rats were anesthetized with an intraperitoneal injection of a 5% pentobarbital solution and then killed by aorta scarification. Their livers were dissected and liver pieces frozen and stored in liquid nitrogen. A part of the liver was fixed for histological investigations. Blood was collected before sacrifice, centrifuged for serum preparation and finally stored in liquid nitrogen.
The generation of reactive oxygen species (ROS) in rat liver was evaluated by NADPH-induced chemiluminescence with amplification by both luminol for the detection of superoxide (SRA) radical anion and lucigenin detecting hydrogen peroxide as described by Müller-Peddinhaus. In short, liver pieces were homogenized in 0.1 M sodium phosphate buffer pH 7.4. The homogenates were centrifuged at 9,000 x g at 0°C and aliquots were used for the measurement. Reduced glutathione (GSH) was determined by a modified Ellman`s method: 0.2 ml of the liver homogenates’ supernatant were added to 1.6 ml of an EDTA-/sodium […] solution. The absorbance was read at […] against blanks. GSH solution—prepared immediately before use—served as a standard. End products of the lipid peroxidation reaction are equivalent to TBARS (thiobarbituric acid-reacting substances) and their concentration was measured according to Buege et al.. The enzymatic activity of cytosolic glutathione peroxidase (GPx) and microsomal glutathione reductase (GR) were determined as described by Buko at al.. Catalase activity was evaluated by spectrophotometric measurement using hydrogen peroxide as a substrate according to Beers et al.. […]

[3] = average over 0.4/4/40 mg/kg b.w. (UDCA 40 mg/kg)

T1 sequence (P05181 whole entry): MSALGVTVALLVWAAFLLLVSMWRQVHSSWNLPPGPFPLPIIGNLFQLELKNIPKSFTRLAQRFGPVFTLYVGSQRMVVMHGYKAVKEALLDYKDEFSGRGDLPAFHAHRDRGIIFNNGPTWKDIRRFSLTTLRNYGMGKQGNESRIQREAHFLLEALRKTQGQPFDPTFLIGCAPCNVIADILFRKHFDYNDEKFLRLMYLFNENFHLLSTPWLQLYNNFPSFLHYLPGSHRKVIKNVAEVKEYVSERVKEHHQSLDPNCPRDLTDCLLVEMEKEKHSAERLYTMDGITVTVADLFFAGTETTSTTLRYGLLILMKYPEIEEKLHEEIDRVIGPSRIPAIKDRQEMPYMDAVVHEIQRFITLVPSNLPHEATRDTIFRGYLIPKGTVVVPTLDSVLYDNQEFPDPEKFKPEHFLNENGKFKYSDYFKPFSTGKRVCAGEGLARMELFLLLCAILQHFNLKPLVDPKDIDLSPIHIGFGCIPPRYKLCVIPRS

inhibitory effect on CYP2E1 (in words) ([1]; human CYP2E1 SUPERSOMES)	SMILES	Ki value (in words) [1]	GR activity reduction compared to disease group [2] [%]	hydrogen peroxide amount reduced below the reference value [2] [%]	reduction of ethanol effect on hydrogen peroxide [2]	increase of ethanol effect on GR activity [2] [%]	GSH elevation compared to disease group [2] [%]	reduction of ethanol effect on TBARS [2, 3] [%]	hydrogen peroxide decrease compared to disease group [2, 3] [%]	reduction of ethanol effect on reduced glutathione (GSH) [2, 3] [%]	SRA decrease compared to disease group [2] [%]	GPx activity elevation compared to disease group ([2]; average over doses) [%]	TBARS decrease compared to disease group ([2]; average over doses) [%]	reduction of ethanol effect on glutathione reductase (GR) activity [2] [%]	GSH value above the reference value of healthy animals ([2]; highest concentration) [%]	TBARS level below the reference values of healthy animals ([2]; highest concentration) [%]	GPx activity below the reference value in healthy animals [2] [%]	reduction of ethanol effect on glutathione peroxidase (GPx) activity [2]	TBARS decrease compared to disease group ([2]; highest concentration) [%]
lower affinity	CCCCCCCCCCCCn1ccnc1 [I-an, 1-Imidazolyldodecane]	nanomolar range	11	56	completely reduced	43	94	93	78	55	43	10	40	43	2	31	10	completely reduced	
	OCCCCCCCCCCCCn1ccnc1 [I-ol]	nanomolar range	10		completely reduced	41	62		75	36	36	17		41		11	8	completely reduced	50
